The nature of this data set: solubility of the bio-liquid crystal polymer in solvents. Also on record: key: +a: soluble only when heated; +: dissolved; −: not dissolved. The format is physicochemical.

Take `O=C(O)/C=C/c1ccc(O)cc1` [4HCA, 4-hydroxycinnamic acid]: the solubility entry was “+” (solvent DMF); “+” (solvent DMSO); “+” (solvent NMP); “+” (solvent THF); “+” (solvent acetone); “+” (solvent acetonitrile). In addition, the solubility entry is, setting by setting: (solvent chloroform) “−”; (solvent ethanol) “+”; (solvent hexane) “−”; (solvent methanol) “+”; (solvent pentafluorophenol) “+”; (solvent toluene) “−”. The solubility result (solvent water) was “^+a”.

The values above are taken from patent US7182884B2, “Bio-liquid crystal polymer and shaped material using same” (Toyoda Gosei Co., Ltd., priority 2003, dated 2007).
